Laboratory results published in patent publication US12428370B2, “Haloallylamine dual amine oxidase inhibitors” (Syntara Limited, priority 2020, dated 2025).
Counter-ions that a name gives are not always drawn.

Assays:
[1] = Pharmacokinetic study in Wistar rats, oral gavage; assay type: in vivo; details: oral gavage at 3 mg/kg, plasma, FIG. 1
Description: Pharmacokinetic (PK) studies were carried out at Sundia MediTech Co. Ltd., Shanghai. […] At various times between 15 minutes and 8 hours, blood samples were collected by tail vein bleed. Plasma was analyzed by high performance liquid chromatography-tandem mass spectrometry using a Shimadzu LC30AD HPLC and a QTRAP 5500 mass spectrometer. The time course and basic PK parameters thus obtained are outlined in FIG. 1.

[2] = system: Hooded Wistar rat model of dopaminergic neurodegeneration; assay: Intranigral LPS-induced neuroinflammatory model, dopaminergic neuron counts; assay type: in vivo, Hooded Wistar male rats; details: unilateral LPS, 2 mg/kg i.p. daily for 2 weeks, t-test p<0.05, FIG. 5
Description: Hooded Wistar male rats weighing between 300-400 g were obtained from Adelaide Laboratory Animal Services.
Unilateral infusions: Rats receiving a unilateral injection of 2 μL of 1.5 mg/mL solution of LPS (O55:B5, Sigma) in the substantia nigra were anaesthetized with isofluorane and positioned in a stereotaxic frame. For all rats, holes were drilled into the skull above the appropriate targeted structures according to the following coordinates: −5.3 mm posterior; ±2.0 mm lateral; −8.0 mm ventral to bregma.
Immunohistochemical procedures: two weeks after the lesion, the rats were transcardially perfused with PBS followed by PFA 4%. Brains were post-fixed in PFA 4%, and coronal sections of 30 μm containing the substantia nigra were collected and washed 3×0.01 M phosphate-buffered saline at pH 7.4. (PBS) for 10 minutes. Dopaminergic neurons were stained with anti-tyrosine hydroxylase (TH) antibody 1:10000 and visualized using nickel-enhanced 3,3′-diaminobenzidine (DAB) and counted manually.

[3] = system: mdx mice (C57BL/10ScSn-Dmdmdx/J); assay: Mouse model of Duchenne muscular dystrophy, PXS-5131; assay type: in vivo; details: 6 mg/kg/day oral, 4 weeks, 3 months old mdx mice
Description: mdx mice (C57BL/10ScSn-Dmdmdx/J) were obtained from Jackson Laboratories, Maine, US. […] Untreated, age-matched animals were used as controls. The drug was administered using small palatable gelatin pellets prepared with 10% gelatin in 20% sucralose plus food flavoring (Zhang L. Protoc. Exch. 2011, 236) Animals were pre-conditioned to recognize and eat the gelatins with a three-day routine involving overnight fasting followed by exposure of each single animal to the gelatin without the active principle, in the absence of other food. Palatability was further improved by dipping the pellets in corn oil containing trace amounts of almond oil and then breading them with pulverized food pellet.
Muscle function in vivo was assessed for the gastrocnemius muscle, as described by Blaauw B. et al., Hum. Mol. Genet. 2008, 17, 3686-3696. Mice were anesthetized, and electrodes were placed on either side of the sciatic nerve, while the common peroneal nerve was cut. Muscle torque production was measured using a lever system (Aurora Scientific 305B). A lever arm of 2.1 mm was used for all groups, as no major differences in body weight between various groups was observed. Eccentric contractions were performed by moving the foot backward at a velocity of 40 mm/s while the gastrocnemius was stimulated with a frequency sufficient to induce full tetanic fusion (100 Hz). Contractions were repeated once every 20 s to avoid inducing fatigue (see FIG. 6).
After the force measurements described above, animals were sacrificed by cervical dislocation and the skeletal muscle and the heart (minus the atria) were collected, flash-frozen in isopentane pre-cooled with liquid nitrogen and stored at −80° C. 12 μm sections from a limb muscle (tibialis anterior) were prepared with a cryotome; multiple serial slides were prepared, containing sections from at least three different levels. The same procedure was used to prepare heart transverse sections.
The amount of the neutrophil and macrophage infiltration was determined in serial sections of skeletal muscle prepared as described above, which were fixed and then stained via immunofluorescence with an anti Ly6G and an anti F4/80 antibody (AbCam, ab25377 and ab6640, for neutrophils and macrophages, respectively). The amount of infiltrate was assessed as percentage of fluorophore-positive pixel over the total area of the sections, using Image-J software (FIGS. 7A and B).
The amount of reactive oxygen species (ROS) present in the skeletal muscle tissue sections was assessed using dihydroethidium (DHE, Sigma) as a fluorescent probe in freshly cut tissue sections as described by Menazza et al., et al., Hum. Mol. Genet. 2010, 19, 4207-4215. In the presence of ROS, DHE is oxidized forming ethidium, which then can bind to nuclear DNA and emit red fluorescence. The amount of the red fluorescence was then measured from at least 20 random fields per each section using the Metafluor software (Leica), and data were averaged per field (FIG. 7C).
The percentage of fibrotic tissue in skeletal muscle was determined by picrosirius red staining. […] Whole images of at least three sections per muscle sample were then acquired with a bright field microscope and then analyzed with Image-J software, in order to measure the percentage of fibrotic (red) areas with respect to the total surface (FIG. 7D).

[4] = Metabolic stability profile (liver microsomes, hepatocytes, plasma, whole blood, simulated gastric fluid, metabolite identification); assay type: in vitro ADME; details: all assays: liver microsomes, plasma (human, rat, dog), simulated gastric fluid pH 1.2, metabolite identification
Description: Assessment of the metabolic stability profile of Compound 1 using standardized commercially available methods (available through contract research organizations such as Eurofins Panlabs Inc, (https://www.eurofinsdiscoveryservices.com/services/in-vitro-assays/) or Evotec SE, (https://www.evotec.com/en/execute/integrated-pre-clinical-development/adme)).
The potential for metabolism in vivo was evaluated in vitro using the following assays:
Liver microsomal stability (human, rat, dog; in presence of NADPH)
Hepatocyte stability (human, rat, dog)
Plasma stability (human, rat, dog)
Whole blood stability (human, rat)
Simulated gastric fluid stability (10 μM test article, pH 1.2)
Metabolite identification in human hepatocytes

Compound	pharmacokinetic profile [1]	loss of dopaminergic neurons (TH-positive) in substantia nigra [2]	neutrophil influx in the tibialis anterior muscle ([3]; p<0.0001, FIG. 7A)	macrophage influx in the tibialis anterior muscle ([3]; p<0.0001, FIG. 7B)	reactive oxygen species in the tibialis anterior muscle ([3]; p<0.0001, FIG. 7C)	fibrosis (picrosirius red staining) in the tibialis anterior muscle ([3]; p<0.0001, FIG. 7D)	loss of force caused by eccentric contractions in the gastrocnemius muscle ([3]; p<0.05, FIG. 6)	metabolic stability [4]
NC/C(=C\F)C1Cc2ccccc2O1 (single isomer, unassigned; (-)) [PXS-5131, (−)-(E)-2-(2,3-Dihydrobenzofuran-2-Yl)-3-Fluoroprop-2-En-1-Amine Hydrochloride]	inferior to Compound 1	significant protection from loss	significantly reduces	significantly reduces	significantly reduces	significantly reduces	helps protect against the loss of force	–
N#Cc1ccc(OC/C(=C/F)CN)cc1 [Compound 1, (E)-4-((2-(aminomethyl)-3-fluoroallyl)oxy) benzonitrile]	–	–	–	–	–	–	–	favourable metabolic stability
